Results published in patent publication US20180000817A1, “TREATMENT OF HUTCHINSON-GILFORD PROGERIA SYNDROME AND DISEASES RELATED TO VASCULAR AGEING” (BIOCANT - ASSOCIAÇÃO DE TRANSFERÊNCIA DE TECNOLOGIA, priority 2015, published 2018).

Key:
MMP-9 = MMP-9 (Homo sapiens, UniProt P14780); conditions: cited from earlier work
HOZ mSMCs = test: Detachment of progeria mouse SMCs under flow shear stress; format: cell-based; conditions: flow conditions, media supplemented with inhibitor
Source text: Mice. Male^LmnaG609G/G609G, and wild-type were used (Osorio F G, Navarro C L, Cadinanos J, Lopez-Mejia I C, Quiros P M, Bartoli C, Rivera J, Tazi J, Guzman G, Varela I, Depetris D, de Carlos F, Cobo J, Andres V, De Sandre-Giovannoli A, Freije J M, Levy N, Lopez-Otin C. Splicing-directed therapy in a new mouse model of human accelerated aging. Science translational medicine. 2011;3:106ra107). Animal studies were approved by the local <<comité d'éthique pour l'expérimentation animale>> (Marseille Animal Care Commitee, Protocol n° 96-21122012) and conformed to the Directive 2010/63/EU of the European parliament regarding the protection of animals used for experimental and other scientific purposes. Mouse vSMCs (mSMC) were prepared from thoracic aortas of 6 or 18 week-old mice. Briefly, after fat tissue removal around aortic region, aorta was dissected from its origin to the proximity of the diaphragm. Aortas from two mice were put into HBSS 1×, on ice then rinse once in HBSS. Aorta were digested 10 minutes at 37° C. in enzyme solution freshly prepared the day of isolation (Collagenase 1 mg/ml, Soybean Trypsin inhibitor 1 mg/ml, elastase 0.744 units/ml—Worthington biochemical—, penicillin/streptomycin 1%, HBSS 1×). […] The loss of mSMC during time was assessed by the percentage of occupied area.
We also analyzed the effect of MMP13 and BB94 inhibition in HOZ mSMCs. […]

HGPS-iPSC SMCs [1] = test: Cell detachment under arterial flow in microfluidic system (loss of function studies); format: cell-based, human; conditions: for HGPS-iPSC SMC detachment: both clones, arterial flow 20 dyne/cm^2, up to 12 days, MMP13 inhibitor 8 nM, BB-94 20 nM
Description: After 4 h, a confluent cell layer was formed, which was then perfused with SmGM-2 medium at physiological flow rate (20 dyne/cm^2). Unless specified, all tests were performed at day 0 and after 4 days on flow culture conditions. Cell number and cell clumps were determined on slides stained with DAPI (20×) and normalized by image area (0.3524 mm^2). Cell clumps areas were evaluated by Image J software.
In case of calcification inhibition studies, cells were treated with SmGM-2 medium containing sodium pyrophosphate (0.9 mM, Sigma), and in case of farnesyltrasferase inhibitor studies, cells were treated with SmGM-2 medium containing Tipifarnib (1 μM) or Lonafarnib (20 μM, Absouce Diagnostics). In MMP, calcification and farnesyltransferase inhibition studies, cells were perfused with medium containing the drug at a flow rate of 20 dyne/cm^2. Medium was changed every 7 days. Cell number and viability (Presto Blue assay) was monitored overtime. In case of MMP-13 inhibition studies, MMP activity was assessed at day 4, and the percentage of progerin positive cells and the expression of phosphatase alkaline were evaluated at day 7.
The complexation of siRNAs with lipofectamine was allowed to proceed for 40 min at room temperature. […] The culture media was changed after 72 h.

MMP-7 = biological target: T1, MMP-7 (Homo sapiens, UniProt P09237); conditions: cited from earlier work
T1 sequence (P09237 95-267): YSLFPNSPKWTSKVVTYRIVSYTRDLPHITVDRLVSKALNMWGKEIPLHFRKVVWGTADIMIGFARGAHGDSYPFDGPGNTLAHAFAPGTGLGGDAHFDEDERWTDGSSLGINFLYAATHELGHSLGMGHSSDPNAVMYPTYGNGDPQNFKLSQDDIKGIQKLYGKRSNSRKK

LmnaG609G/G609G mice = test: In vivo treatment of progeria mice with BB-94; design: species or system mouse
Description: In vivo studies. 16 Lmna^G609G/G609G mice (male and female) were used. […] IP injections were used to administrate 30 mg/Kg/day of BB-94 in 3 mg/ml in PBS containing 0.01% Tween 80. The treatment was applied 5 times per week during 6 weeks (from week 5 to week 10). […] At the end of week 10 the mice were sacrificed and the selected parameters were evaluated.
Gene Expression Profiling using Fluidigm. Small parts of mice aortas were frozen to be analyzed. These parts were lysated and homogenized using a MagNA instrument and MagNA Lyser Green Beads (with 5 mm (diameter) stainless steel beads). Total RNA were then isolated and quantified. DELTAgene assays (FlexSix—Fluidigm) were designed for […] transcripts. The pre-amplification process was performed for 14 cycles in order to obtain sensitivity down to a single cDNA molecule. The oligos were synthesized by Sigma and dissolved at a concentration of 100 μM in water. For each assay a Primer Pair Mix was prepared containing 50 μM Forward Primer and 50 μM Reverse Primer. In order to prepare 10× Pre-amplification Primer Mix (500 nM each primer), 10 μL of each of the 96 Primer Pair Mixes (50 μM each primer) was mixed with […] buffer consisting of 10 mM Tris-HCl, pH 8.0; 0.1 mM EDTA; 0.25% Tween-20. In order to prepare 10× Assay (5 μM each primer) each Primer Pair Mix was diluted by mixing 10 μL Primer Pair Mix (50 μM each primer) with 90 μL buffer consisting of 10 mM Tris-HCl, pH 8.0; 0.1 mM EDTA; 0.25% Tween-20. A pre-mix containing cDNA and primers was done and treatment with exonuclease I was performed to remove non-hybridized primers. The Fluidigm® FLEXsix™ Gene expression IFC was used with EvaGreen chemistry. After a prime of the chip, a 10× assay mix and sample mix were prepared and pipetted into the inlets. The chip was loaded and data was collected using the BioMark HD™. Data was analyzed using Fluidigm® Real Time PCR Analysis v2.1 software.
So far no therapy has been developed to target specifically SMC loss. Most of the compounds identified so far in pre-clinical tests to treat progeria have been focused in the reduction of progerin quantities, by either reducing its production or increasing its degradation, in the reduction of progerin toxicity by targeting its aberrant prenylation, or identifying compounds capable of restoring pathological phenotypes downstream of progerin accumulation. Therefore we asked whether the inhibition of MMP13 in LmnaG609G/G609G mice could retard SMC loss. […] LmnaG609G/G609G mice (n=8 for treatment group and control group; age: 5 weeks) were IP injected 5 times a week (30 mg/Kg/day; 3 mg/mL in PBS). […] At this time point we evaluated SMC loss in the aortic arch.

HGPS-iPSC SMCs [2] = test: Response to farnesyltransferase inhibitor: prelamin A and nuclear morphology by immunofluorescence; format: cell-based, human; conditions: one dose 1 μM, after 48 h
Description: To evaluate whether HGPS-iPSC SMCs could respond to farnesyltransferase inhibitors, as shown for other progeria cell models, cells were treated with one dose of Tipifarnib (1 μM) and after 48 h cells were characterized for the expression of prelamin A. As expected, HGPS-iPSC SMCs accumulate nuclear prelamin A (approximately 95% of the cells), as shown by immunofluorescence (FIG. 12).
Immunofluorescence analysis—In an embodiment, cells were washed with PBS, fixed with 4% paraformaldehyde (Electron Microscopy Sciences) for 15 min at room temperature and washed again with PBS. […] Binding of primary antibodies to specific cells was detected with anti-mouse IgG Cy3 (Sigma) or anti-rabbit IgG Cy3 (JacksonImmunoResearch). Cell nuclei were stained with 4′, 6′-diamidino-2-phenylindole (DAPI) (Sigma) and the slides examined with a regular (Zeiss) or high-content fluorescence microscope (IN Cell 2200, GE Healthcare). Image) software was used to quantify the overall intensity of each image, which was then normalized for cell number.

MMP-9, sequence (P14780 94-707, species assumed): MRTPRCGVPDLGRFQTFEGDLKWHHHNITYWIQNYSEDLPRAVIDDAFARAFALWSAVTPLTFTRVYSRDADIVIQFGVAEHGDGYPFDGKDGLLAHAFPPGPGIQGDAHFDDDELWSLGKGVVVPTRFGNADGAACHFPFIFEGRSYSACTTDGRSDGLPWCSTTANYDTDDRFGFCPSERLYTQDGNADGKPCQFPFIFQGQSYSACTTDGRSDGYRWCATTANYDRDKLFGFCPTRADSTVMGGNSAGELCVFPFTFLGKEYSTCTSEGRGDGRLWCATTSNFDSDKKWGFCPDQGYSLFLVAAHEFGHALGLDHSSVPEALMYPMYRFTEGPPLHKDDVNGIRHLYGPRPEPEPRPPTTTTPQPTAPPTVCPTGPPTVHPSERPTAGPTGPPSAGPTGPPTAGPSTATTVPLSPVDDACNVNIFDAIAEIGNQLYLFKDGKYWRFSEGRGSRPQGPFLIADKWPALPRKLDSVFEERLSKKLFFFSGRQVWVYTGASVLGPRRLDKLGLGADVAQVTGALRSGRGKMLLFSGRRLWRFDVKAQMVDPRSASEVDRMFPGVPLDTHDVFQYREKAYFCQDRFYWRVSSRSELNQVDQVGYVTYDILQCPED

CNC(=O)[C@H](Cc1ccccc1)NC(=O)[C@H](CC(C)C)[C@H](CSc1cccs1)C(=O)NO [Batimastat, (2R,3S)-N4-Hydroxy-2-isobutyl-N1-[(2S)-1-(methylamino)-1-oxo-3-phenyl-2-propanyl]-3-[(2-thienylsulfanyl)methyl]succinamide]
IC50 (MMP-9): ≤ 20 nM
detachment of HOZ mSMCs (HOZ mSMCs): significantly delayed
HGPS-iPSC SMC detachment (HGPS-iPSC SMCs [1]): decreased significantly the detachment
IC50 (MMP-7): ≤ 20 nM
solubility of the compound (LmnaG609G/G609G mice; 3 mg/mL in PBS, IP injection): low solubility
number of SMCs in aortic arch (LmnaG609G/G609G mice; IP 30 mg/Kg/day, 5 times per week, 6 weeks, cell nuclei counting and qRT-PCR, versus untreated animals): higher number of SMCs than untreated animals
progerin in cells isolated from aortic arch (LmnaG609G/G609G mice; IP 30 mg/Kg/day, 6 weeks): No evidence of decrease of progerin
intra-abdominal accumulation (precipitate) (LmnaG609G/G609G mice; IP 30 mg/Kg/day, treatment reduced from 10 to 6 weeks): intra-abdominal massive accumulation

NC(=O)N1CCC(CC(=O)N2CCC([C@H]3c4ncc(Br)cc4CCc4cc(Cl)cc(Br)c43)CC2)CC1 [Lonafarnib]
cellular detachment (HGPS-iPSC SMCs [1]; HGPS-iPSC SMC clone 1, arterial flow, Tipifarnib 1 μM, Lonafarnib 20 μM): able to decrease cellular detachment

Cc1cc(CNC(=O)c2cc(C(=O)NCc3ccc(F)c(C)c3)ncn2)ccc1F [MMP-13 inhibitor, pyrimidine-4,6-dicarboxylic acid, bis-(4-fluoro-3-methyl-benzylamide)]
detachment of HOZ mSMCs (HOZ mSMCs): significantly delayed
HGPS-iPSC SMC detachment (HGPS-iPSC SMCs [1]): decreased significantly the detachment

Cn1cncc1[C@@](N)(c1ccc(Cl)cc1)c1ccc2c(c1)c(-c1cccc(Cl)c1)cc(=O)n2C [Tipifarnib]
cells accumulating nuclear prelamin A (HGPS-iPSC SMCs [2]): approximately 95 % of the cells

O=P([O-])([O-])OP(=O)([O-])[O-].[Na+].[Na+].[Na+].[Na+] [sodium pyrophosphate]
SMC detachment (HGPS-iPSC SMCs [1]; calcification inhibition, sodium pyrophosphate 0.9 mM, arterial flow): significant decreased in SMC detachment
